Laboratory results published in patent US20140057915A1, “KINASE INHIBITORS” (TOPIVERT PHARMA LIMITED, priority 2012, published 2014).
pIC50: −log10 of the molar value.

Columns and labels:
Syk = Syk (Homo sapiens, UniProt P43405); assay: Syk enzyme inhibition (FRET); type: biochemical
Outline: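 2 hr RT enzyme + cpd (added solns 4/0.4/0.04/0.004 μg/mL); + FRET peptide (8 μM soln) + ATP soln (c-Src 800 μM, Syk 60 μM), 1 hr; protease development 1 hr; read donor/acceptor emission ratio.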

GSK3α = GSK3α (Homo sapiens, UniProt P49840); assay: GSK 3α enzyme inhibition (FRET), Method 1; type: biochemical; conditions: Table 4a1
Outline: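 Steps: preincubate GSK3α with compound 2 hr at room temperature; start reaction with peptide and ATP for 1 hr; develop with site-specific protease for 1 hr; measure fluorescence and take the coumarin/fluorescein ratio as the phosphorylation level.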

IL-8 release, PBMCs = assay: LPS-induced IL-8 release in PBMC cells; type: cell-based; conditions: Homo sapiens, LPS stimulated, read-out: IC50 Values for Inhibition of Cytokine Release, PBMCs, IL-8
Outline: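 PBMCs from healthy donors pretreated with compound for 2 h, then stimulated with 1 ng/ml LPS (E. coli 0111:B4) for 24 h at 37 °C, 5% CO2. Supernatant IL-8 and TNFα measured by sandwich ELISA with fluorescence read-out.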

IL-8 release, HT29 cells = assay: IL-1β-induced IL-8 release in HT29 cells; type: cell-based; conditions: Homo sapiens, HT-29; IL-1β stimulated; read-out: IC50 Values for Inhibition of Cytokine Release, HT29 cells, IL-8
Experimental: (d) IL-1β-Induced IL-8 Release in HT29 Cells
HT29 cells, a human colon adenocarcinoma cell line, are plated in a 96 well plate (24 hrs) and pre-treated with compounds at the desired concentration for 2 hours before addition of 5 ng/ml of IL-1β (Abeam) for 24 hours, Supernatants are harvested for IL-8 quantification by Sandwich ELISA (Duo-set, R&D System). The IC50 is determined from the dose response curve.

[1] = test system: ICAM-1 expression, BEAS2B cells; assay: Poly I:C-induced ICAM-1 expression in BEAS2B cells; type: cell-based; conditions: Homo sapiens, BEAS-2B; read-out: Poly IC induced ICAM1 in BEAS2B, IC50
Outline: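 Cell-based ELISA for surface ICAM-1 in human BEAS2B cells 18 h after transfection with the RNA-virus mimic poly I:C (1 μg/mL, with Oligofectamine), compounds added 2 h beforehand. OD450–655 divided by Crystal Violet OD595 per well; percent inhibition relative to vehicle.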

d-U937 cells = assay: Cell viability: MTT assay; type: cell-based, human; conditions: 1 μg/mL
Outline: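 MTT reduction (1 h, DMSO solubilisation, A550) measured after compound treatment at 1 or 10 μg/mL of differentiated U937 cells for 4 h (5% FCS RPMI1640) or 24 h (10% FCS). Percentage viability loss computed relative to 0.5% DMSO vehicle, with increases tabulated as negative values.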

[2] = Table 4a2, different laboratory

GSK3α, sequence (P49840 whole entry): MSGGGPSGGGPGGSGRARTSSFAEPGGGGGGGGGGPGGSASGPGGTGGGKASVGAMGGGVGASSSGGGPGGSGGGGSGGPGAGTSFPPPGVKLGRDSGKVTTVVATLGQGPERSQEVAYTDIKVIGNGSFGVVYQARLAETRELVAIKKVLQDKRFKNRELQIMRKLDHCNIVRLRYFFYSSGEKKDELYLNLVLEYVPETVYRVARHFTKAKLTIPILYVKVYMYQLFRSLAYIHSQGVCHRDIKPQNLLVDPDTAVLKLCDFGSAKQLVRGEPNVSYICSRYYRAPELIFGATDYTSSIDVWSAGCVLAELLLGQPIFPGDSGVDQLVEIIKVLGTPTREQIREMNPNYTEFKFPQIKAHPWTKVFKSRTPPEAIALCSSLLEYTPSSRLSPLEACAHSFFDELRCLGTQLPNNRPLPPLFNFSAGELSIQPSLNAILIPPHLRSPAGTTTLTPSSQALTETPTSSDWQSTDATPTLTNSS

Structure (SMILES)	pIC50 (Syk; Table 4a1)	pIC50 (Syk; [2])	pIC50 (GSK3α)	pIC50 (IL-8 release, PBMCs)	pIC50 (IL-8 release, HT29 cells)	pIC50 [1]	Cell viability at time point in d-U937 cells, 4 h (d-U937 cells)	Cell viability at time point in d-U937 cells, 24 h (d-U937 cells)
COc1cc(Nc2cc(Oc3ccc(NC(=O)Nc4cc(C(C)(C)C)nn4-c4ccc(C)cc4)c4ccccc34)ccn2)cc(C(=O)NCCN2CCOCC2)c1 [Example 1, 3-((4-((4-(3-(3-(tert-Butyl)-1-(p-tolyl)-1H-pyrazol-5-yl)ureido)naphthalen-1-yl)oxy)pyridin-2-yl)amino)-5-methoxy-N-(2-morpholinoethyl)benzamide]	8.00	7.18	5.54	8.62	7.99	8.47	−ve (−ve and +ve indicate that the value is below and above respectively, the no significant effect threshold, defined as 30% inhibition at 1 μg/mL at the time point indicated)	−ve (−ve and +ve indicate that the value is below and above respectively, the no significant effect threshold, defined as 30% inhibition at 1 μg/mL at the time point indicated)
COc1cc(Nc2nccc(Oc3ccc(NC(=O)Nc4cc(C(C)C)nn4-c4ccc(C)cc4)c4ccccc34)n2)cc(C(=O)NCCN2CCOCC2)c1 [Example 8, 3-((4-((4-(3-(3-Isopropyl-1-(p-tolyl)-1H-pyrazol-5-yl)ureido)naphthalen-1-yl)oxy)pyrimidin-2-yl)amino)-5-methoxy-N-(2-morpholinoethyl)benzamide]	8.52	6.65	5.10	8.74	8.39	8.96	−ve (−ve and +ve indicate that the value is below and above respectively, the no significant effect threshold, defined as 30% inhibition at 1 μg/mL at the time point indicated)	−ve (−ve and +ve indicate that the value is below and above respectively, the no significant effect threshold, defined as 30% inhibition at 1 μg/mL at the time point indicated)
C#Cc1cc(Nc2nccc(Oc3ccc(NC(=O)Nc4cc(C(C)C)nn4-c4ccc(C)cc4)c4ccccc34)n2)cc(C(=O)NCCN2CCOCC2)c1 [Example 46, 3-ethynyl-5-((4-((4-(3-(3-isopropyl-1-(p-tolyl)-1H-pyrazol-5-yl)ureido)naphthalen-1-yl)oxy)pyrimidin-2-yl)amino)-N-(2-morpholinoethyl)benzamide]	–	7.66	–	8.96	8.27	–	−ve (−ve and +ve indicate that the value is below and above respectively, the no significant effect threshold, defined as 30% inhibition at 1 μg/mL at the time point indicated)	−ve (−ve and +ve indicate that the value is below and above respectively, the no significant effect threshold, defined as 30% inhibition at 1 μg/mL at the time point indicated)
